{"source": "the supplement of paper PMC10307832", "assay_in_all_cases": "relative viability (nuclei count vs DMSO), 5 days (fraction); higher = more cells survive", "key": {"HARA": {"tested_on": "HARA", "outline": "(§1)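 After 5 days of treatment, lung cancer cells in 1536-well plates were fixed and stained in a single step (final 0.05% Triton X-100, 1% formaldehyde, 1 ug/ml Hoechst) and their nuclei counted on 4× images. Treatment had been applied by pin tool the day after seeding as one drug alone or as a fixed anchor-drug dose with five library-drug doses (not always all listed) in √10 steps. Relative viability is the nuclei count of treated wells divided by that of vehicle wells, and values are medians of duplicate plates.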"}, "NCI-H596": {"tested_on": "NCI-H596", "outline": "as §1"}, "COR-L 105": {"tested_on": "COR-L 105", "outline": "as §1"}, "HCC-366": {"tested_on": "HCC-366", "outline": "as §1"}, "HOP-62": {"tested_on": "HOP-62", "outline": "as §1"}, "NCI-H1915": {"tested_on": "NCI-H1915", "outline": "as §1"}, "NCI-H1650": {"tested_on": "NCI-H1650", "outline": "as §1"}, "LU99A": {"tested_on": "LU99A", "outline": "as §1"}, "LOU-NH91": {"tested_on": "LOU-NH91", "outline": "as §1"}, "LC-2-ad": {"tested_on": "LC-2-ad", "outline": "as §1"}, "HCC-827": {"tested_on": "HCC-827", "outline": "as §1"}, "HCC-15": {"tested_on": "HCC-15", "outline": "as §1"}, "NCI-H1395": {"tested_on": "NCI-H1395", "outline": "as §1"}, "CAL-12T": {"tested_on": "CAL-12T", "outline": "as §1"}, "NCI-H650": {"tested_on": "NCI-H650", "outline": "as §1"}, "ABC-1": {"tested_on": "ABC-1", "outline": "as §1"}, "NCI-H1944": {"tested_on": "NCI-H1944", "outline": "as §1"}, "LCLC-97TM1": {"tested_on": "LCLC-97TM1", "outline": "as §1"}, "NCI-H2023": {"tested_on": "NCI-H2023", "outline": "as §1"}, "ChaGo-K-1": {"tested_on": "ChaGo-K-1", "outline": "as §1"}, "NCI-H2009": {"tested_on": "NCI-H2009", "outline": "as §1"}, "HCC-44": {"tested_on": "HCC-44", "outline": "as §1"}, "BEN": {"tested_on": "BEN", "outline": "as §1"}, "NCI-H522": {"tested_on": "NCI-H522", "outline": "as §1"}, "NCI-H661": {"tested_on": "NCI-H661", "outline": "as §1"}}}
{"molecule": "Nc1cccc2c1CN(C1CCC(=O)NC1=O)C2=O", "note": "(configuration not stated) [Lenalidomide] + O=C(CCCCCCC(=O)Nc1ccccc1)NO [Vorinostat] (partner 1 µM)", "values": [{"measurement": "relative viability", "setting": "HARA; first compound 0.253 µM", "value": 0.61}, {"measurement": "relative viability", "setting": "HARA; first compound 2.53 µM", "value": 0.628}, {"measurement": "relative viability", "setting": "HARA; first compound 8 µM", "value": 0.512}, {"measurement": "relative viability", "setting": "NCI-H596; first compound 0.253 µM", "value": 0.584}, {"measurement": "relative viability", "setting": "NCI-H596; first compound 0.8 µM", "value": 0.464}, {"measurement": "relative viability", "setting": "NCI-H596; first compound 2.53 µM", "value": 0.689}, {"measurement": "relative viability", "setting": "NCI-H596; first compound 8 µM", "value": 0.52}, {"measurement": "relative viability", "setting": "COR-L 105; first compound 0.253 µM", "value": 0.682}, {"measurement": "relative viability", "setting": "COR-L 105; first compound 0.8 µM", "value": 0.863}, {"measurement": "relative viability", "setting": "COR-L 105; first compound 2.53 µM", "value": 0.983}, {"measurement": "relative viability", "setting": "COR-L 105; first compound 8 µM", "value": 0.858}, {"measurement": "relative viability", "setting": "HCC-366; first compound 0.253 µM", "value": 0.335}, {"measurement": "relative viability", "setting": "HCC-366; first compound 0.8 µM", "value": 0.102}, {"measurement": "relative viability", "setting": "HCC-366; first compound 2.53 µM", "value": 0.479}, {"measurement": "relative viability", "setting": "HCC-366; first compound 8 µM", "value": 0.265}, {"measurement": "relative viability", "setting": "HOP-62; first compound 0.253 µM", "value": 0.56}, {"measurement": "relative viability", "setting": "HOP-62; first compound 0.8 µM", "value": 0.565}, {"measurement": "relative viability", "setting": "HOP-62; first compound 2.53 µM", "value": 0.662}, {"measurement": "relative viability", "setting": "HOP-62; first compound 8 µM", "value": 0.519}, {"measurement": "relative viability", "setting": "NCI-H1915; first compound 0.253 µM", "value": 0.478}, {"measurement": "relative viability", "setting": "NCI-H1915; first compound 0.8 µM", "value": 0.482}, {"measurement": "relative viability", "setting": "NCI-H1915; first compound 2.53 µM", "value": 0.601}, {"measurement": "relative viability", "setting": "NCI-H1915; first compound 8 µM", "value": 0.445}, {"measurement": "relative viability", "setting": "NCI-H1650; first compound 0.253 µM", "value": 0.545}, {"measurement": "relative viability", "setting": "NCI-H1650; first compound 0.8 µM", "value": 0.527}, {"measurement": "relative viability", "setting": "NCI-H1650; first compound 2.53 µM", "value": 0.543}, {"measurement": "relative viability", "setting": "NCI-H1650; first compound 8 µM", "value": 0.664}, {"measurement": "relative viability", "setting": "LU99A; first compound 0.253 µM", "value": 0.461}, {"measurement": "relative viability", "setting": "LU99A; first compound 0.8 µM", "value": 0.425}, {"measurement": "relative viability", "setting": "LU99A; first compound 2.53 µM", "value": 0.559}, {"measurement": "relative viability", "setting": "LU99A; first compound 8 µM", "value": 0.263}, {"measurement": "relative viability", "setting": "LOU-NH91; first compound 0.253 µM", "value": 0.928}, {"measurement": "relative viability", "setting": "LOU-NH91; first compound 0.8 µM", "value": 0.753}, {"measurement": "relative viability", "setting": "LOU-NH91; first compound 2.53 µM", "value": 0.98}, {"measurement": "relative viability", "setting": "LOU-NH91; first compound 8 µM", "value": 0.817}, {"measurement": "relative viability", "setting": "LC-2-ad; first compound 0.253 µM", "value": 0.733}, {"measurement": "relative viability", "setting": "LC-2-ad; first compound 0.8 µM", "value": 0.643}, {"measurement": "relative viability", "setting": "LC-2-ad; first compound 2.53 µM", "value": 0.718}, {"measurement": "relative viability", "setting": "LC-2-ad; first compound 8 µM", "value": 0.735}, {"measurement": "relative viability", "setting": "HCC-827; first compound 0.253 µM", "value": 1.04}, {"measurement": "relative viability", "setting": "HCC-827; first compound 0.8 µM", "value": 0.763}, {"measurement": "relative viability", "setting": "HCC-827; first compound 2.53 µM", "value": 0.985}, {"measurement": "relative viability", "setting": "HCC-827; first compound 8 µM", "value": 1.06}, {"measurement": "relative viability", "setting": "HCC-15; first compound 0.253 µM", "value": 0.826}, {"measurement": "relative viability", "setting": "HCC-15; first compound 0.8 µM", "value": 0.855}, {"measurement": "relative viability", "setting": "HCC-15; first compound 2.53 µM", "value": 0.917}, {"measurement": "relative viability", "setting": "HCC-15; first compound 8 µM", "value": 0.795}, {"measurement": "relative viability", "setting": "NCI-H1395; first compound 0.253 µM", "value": 0.807}, {"measurement": "relative viability", "setting": "NCI-H1395; first compound 2.53 µM", "value": 0.736}, {"measurement": "relative viability", "setting": "NCI-H1395; first compound 8 µM", "value": 0.567}, {"measurement": "relative viability", "setting": "CAL-12T; first compound 0.253 µM", "value": 0.874}, {"measurement": "relative viability", "setting": "CAL-12T; first compound 0.8 µM", "value": 0.887}, {"measurement": "relative viability", "setting": "CAL-12T; first compound 2.53 µM", "value": 0.999}, {"measurement": "relative viability", "setting": "CAL-12T; first compound 8 µM", "value": 0.907}, {"measurement": "relative viability", "setting": "NCI-H650; first compound 0.253 µM", "value": 0.492}, {"measurement": "relative viability", "setting": "NCI-H650; first compound 0.8 µM", "value": 0.446}, {"measurement": "relative viability", "setting": "NCI-H650; first compound 2.53 µM", "value": 0.59}, {"measurement": "relative viability", "setting": "NCI-H650; first compound 8 µM", "value": 0.322}, {"measurement": "relative viability", "setting": "ABC-1; first compound 0.253 µM", "value": 1.31}, {"measurement": "relative viability", "setting": "ABC-1; first compound 0.8 µM", "value": 1.1}, {"measurement": "relative viability", "setting": "ABC-1; first compound 2.53 µM", "value": 1.36}, {"measurement": "relative viability", "setting": "ABC-1; first compound 8 µM", "value": 1.46}, {"measurement": "relative viability", "setting": "NCI-H1944; first compound 0.253 µM", "value": 0.543}, {"measurement": "relative viability", "setting": "NCI-H1944; first compound 2.53 µM", "value": 0.58}, {"measurement": "relative viability", "setting": "NCI-H1944; first compound 8 µM", "value": 0.44}, {"measurement": "relative viability", "setting": "LCLC-97TM1; first compound 0.253 µM", "value": 0.586}, {"measurement": "relative viability", "setting": "LCLC-97TM1; first compound 0.8 µM", "value": 0.581}, {"measurement": "relative viability", "setting": "LCLC-97TM1; first compound 2.53 µM", "value": 0.901}, {"measurement": "relative viability", "setting": "LCLC-97TM1; first compound 8 µM", "value": 0.507}, {"measurement": "relative viability", "setting": "NCI-H2023; first compound 0.253 µM", "value": 0.637}, {"measurement": "relative viability", "setting": "NCI-H2023; first compound 0.8 µM", "value": 0.732}, {"measurement": "relative viability", "setting": "NCI-H2023; first compound 2.53 µM", "value": 0.652}, {"measurement": "relative viability", "setting": "NCI-H2023; first compound 8 µM", "value": 0.468}, {"measurement": "relative viability", "setting": "ChaGo-K-1; first compound 0.253 µM", "value": 0.773}, {"measurement": "relative viability", "setting": "ChaGo-K-1; first compound 0.8 µM", "value": 0.753}, {"measurement": "relative viability", "setting": "ChaGo-K-1; first compound 2.53 µM", "value": 0.838}, {"measurement": "relative viability", "setting": "ChaGo-K-1; first compound 8 µM", "value": 0.694}, {"measurement": "relative viability", "setting": "NCI-H2009; first compound 0.253 µM", "value": 0.686}, {"measurement": "relative viability", "setting": "NCI-H2009; first compound 0.8 µM", "value": 0.72}, {"measurement": "relative viability", "setting": "NCI-H2009; first compound 2.53 µM", "value": 0.852}, {"measurement": "relative viability", "setting": "NCI-H2009; first compound 8 µM", "value": 0.769}, {"measurement": "relative viability", "setting": "HCC-44; first compound 0.253 µM", "value": 1.05}, {"measurement": "relative viability", "setting": "HCC-44; first compound 0.8 µM", "value": 0.926}, {"measurement": "relative viability", "setting": "HCC-44; first compound 2.53 µM", "value": 1.04}, {"measurement": "relative viability", "setting": "HCC-44; first compound 8 µM", "value": 1.08}, {"measurement": "relative viability", "setting": "BEN; first compound 0.253 µM", "value": 0.559}, {"measurement": "relative viability", "setting": "BEN; first compound 0.8 µM", "value": 0.5}, {"measurement": "relative viability", "setting": "BEN; first compound 2.53 µM", "value": 0.617}, {"measurement": "relative viability", "setting": "BEN; first compound 8 µM", "value": 0.545}, {"measurement": "relative viability", "setting": "NCI-H522; first compound 0.253 µM", "value": 0.767}, {"measurement": "relative viability", "setting": "NCI-H522; first compound 0.8 µM", "value": 0.86}, {"measurement": "relative viability", "setting": "NCI-H522; first compound 2.53 µM", "value": 1.09}, {"measurement": "relative viability", "setting": "NCI-H522; first compound 8 µM", "value": 0.781}, {"measurement": "relative viability", "setting": "NCI-H661; first compound 0.253 µM", "value": 0.737}, {"measurement": "relative viability", "setting": "NCI-H661; first compound 0.8 µM", "value": 0.828}, {"measurement": "relative viability", "setting": "NCI-H661; first compound 2.53 µM", "value": 0.893}, {"measurement": "relative viability", "setting": "NCI-H661; first compound 8 µM", "value": 0.848}]}
